# Source: US11820766B2, “Monoacylglycerol lipase modulators” (Janssen Pharmaceutica NV, priority 2018, dated 2023)
# Molecular target: T1, human MGL from HeLa cells (Homo sapiens, UniProt Q99685)
# T1 construct: combining endogenously expressed MGL from HeLa cells with test compounds; endogenous in cells; host or cells: HeLa cells / cell homogenates
# T1 sequence (Q99685 1-303): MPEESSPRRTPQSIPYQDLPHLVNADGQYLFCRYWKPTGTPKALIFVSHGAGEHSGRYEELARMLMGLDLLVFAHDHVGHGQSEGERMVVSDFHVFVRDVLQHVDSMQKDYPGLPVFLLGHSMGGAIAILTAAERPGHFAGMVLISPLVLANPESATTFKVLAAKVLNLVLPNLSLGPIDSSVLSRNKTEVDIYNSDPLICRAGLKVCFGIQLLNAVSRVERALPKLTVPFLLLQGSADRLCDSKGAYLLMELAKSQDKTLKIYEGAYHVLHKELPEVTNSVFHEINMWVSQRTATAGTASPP
# Test: In vitro MGL activity assay: [glycerol-1,3-3H]-oleyl glycerol cleavage by MGL from HeLa cells
# Format: biochemical
# Conditions: 300 nM [Glycerol-1,3-3H]-oleyl glycerol, one hour
# Source text: MGL is the predominant hydrolase in HeLa cells/cell homogenates.
row,Compound,IC50 [nM]
1,"C[C@H]1c2nn(C)c(-c3cc(F)c(F)c(F)c3)c2CCN1C(=O)c1ncnc2c(F)cccc12 [Example 481, [(7S)-2,7-Dimethyl-3-(3,4,5-trifluorophenyl)-5,7-dihydro-4H-pyrazolo[3,4-c]pyridin-6-yl]-(8-fluoroquinazolin-4-yl)methanone]",5.2
2,"C[C@H]1c2nn(C)c(-c3cc(F)c(F)c(F)c3)c2CCN1C(=O)c1ncnc2ccccc12 [Example 482, [(7S)-2,7-Dimethyl-3-(3,4,5-trifluorophenyl)-5,7-dihydro-4H-pyrazolo[3,4-c]pyridin-6-yl]-quinazolin-4-yl-methanone]",6.22
3,"[2H]c1cnc2cc(C(=O)N3CCc4c(nn(C)c4-c4cc(F)c(F)c(F)c4)[C@@H]3C)ccc2n1 [Example 483, (2-Deuterioquinoxalin-6-yl)-[(7S)-2,7-dimethyl-3-(3,4,5-trifluorophenyl)-5,7-dihydro-4H-pyrazolo[3,4-c]pyridin-6-yl]methanone]",10.2
4,"C[C@H]1c2nn(C)c(-c3cc(F)c(F)c(F)c3)c2CCN1C(=O)c1nccc2ncncc12 [Example 484, [(7S)-2,7-Dimethyl-3-(3,4,5-trifluorophenyl)-5,7-dihydro-4H-pyrazolo[3,4-c]pyridin-6-yl]-pyrido[4,3-d]pyrimidin-5-yl-methanone]",62.2
5,"C[C@H]1c2nn(C)c(-c3cc(F)c(F)c(F)c3)c2CCN1C(=O)c1ccnc2cccnc12 [Example 485, [(7S)-2,7-Dimethyl-3-(3,4,5-trifluorophenyl)-5,7-dihydro-4H-pyrazolo[3,4-c]pyridin-6-yl]-(1,5-naphthyridin-4-yl)methanone]",33.2
6,C[C@H]1c2nn(C)c(-c3cc(F)c(F)c(F)c3)c2CCN1C(=O)c1nccc2ncccc12 [Example 486],13.7
7,"Cc1ccc2c(C(=O)N3CCc4c(nn(C)c4-c4cc(F)c(F)c(F)c4)[C@@H]3C)nccc2n1 [Example 487, [(7S)-2,7-Dimethyl-3-(3,4,5-trifluorophenyl)-5,7-dihydro-4H-pyrazolo[3,4-c]pyridin-6-yl]-(2-methyl-1,6-naphthyridin-5-yl)methanone]",35.3
8,"C[C@H]1c2nn(C)c(-c3cc(F)c(F)c(F)c3)c2CCN1C(=O)c1cnc2ccncc2c1 [Example 488, [(7S)-2,7-Dimethyl-3-(3,4,5-trifluorophenyl)-5,7-dihydro-4H-pyrazolo[3,4-c]pyridin-6-yl]-(1,6-naphthyridin-3-yl)methanone]",227
9,C[C@H]1c2nn(C)c(-c3cc(F)c(F)c(F)c3)c2CCN1C(=O)c1cncc2ncccc12 [Example 489],30
10,"C[C@H]1c2nn(C)c(-c3cc(F)c(F)c(F)c3)c2CCN1C(=O)c1cnc2ncccc2c1 [Example 490, [(7S)-2,7-Dimethyl-3-(3,4,5-trifluorophenyl)-5,7-dihydro-4H-pyrazolo[3,4-c]pyridin-6-yl]-(1,8-naphthyridin-3-yl)methanone]",226
11,"C[C@H]1c2nn(C)c(-c3cc(F)c(F)c(F)c3)c2CCN1C(=O)c1ccnc2ncccc12 [Example 491, [(7S)-2,7-Dimethyl-3-(3,4,5-trifluorophenyl)-5,7-dihydro-4H-pyrazolo[3,4-c]pyridin-6-yl]-(1,8-naphthyridin-4-yl)methanone]",141
12,"C[C@H]1c2nn(C)c(-c3ccccc3C(F)(F)F)c2CCN1C(=O)c1ccc2ncccc2c1 [Example 493, [(7S)-2,7-Dimethyl-3-[2-(trifluoromethyl)phenyl]-5,7-dihydro-4H-pyrazolo[3,4-c]pyridin-6-yl]-(6-quinolyl)methanone]",2360
13,"C[C@H]1c2nn(C)c(-c3ccc(C(F)(F)F)cc3)c2CCN1C(=O)c1ccc2ncccc2c1 [Example 494, [(7S)-2,7-Dimethyl-3-[4-(trifluoromethyl)phenyl]-5,7-dihydro-4H-pyrazolo[3,4-c]pyridin-6-yl]-(6-quinolyl)methanone]",54.9
14,"CCOc1ccc(-c2c3c(nn2C)[C@H](C)N(C(=O)c2ccc4ncccc4c2)CC3)cc1 [Example 497, [(7S)-3-(4-Ethoxyphenyl)-2,7-dimethyl-5,7-dihydro-4H-pyrazolo[3,4-c]pyridin-6-yl]-(6-quinolyl)methanone]",313
15,"CC(C)Oc1cccc(-c2c3c(nn2C)[C@H](C)N(C(=O)c2ccc4ncccc4c2)CC3)c1 [Example 498, [(7S)-3-(3-Isopropoxyphenyl)-2,7-dimethyl-5,7-dihydro-4H-pyrazolo[3,4-c]pyridin-6-yl]-(6-quinolyl)methanone]",361
16,"C[C@H]1c2nn(C)c(-c3cccc(OC(F)F)c3)c2CCN1C(=O)c1ccc2ncccc2c1 [Example 499, [(7S)-3-[3-(Difluoromethoxy)phenyl]-2,7-dimethyl-5,7-dihydro-4H-pyrazolo[3,4-c]pyridin-6-yl]-(6-quinolyl)methanone]",44.4
17,"C[C@H]1c2nn(C)c(-c3ccc(OC(F)(F)F)cc3)c2CCN1C(=O)c1ccc2ncccc2c1 [Example 500, [(7S)-2,7-Dimethyl-3-[4-(trifluoromethoxy)phenyl]-5,7-dihydro-4H-pyrazolo[3,4-c]pyridin-6-yl]-(6-quinolyl)methanone]",75.7
18,"C[C@H]1c2nn(C)c(-c3cccc(OC(F)(F)F)c3)c2CCN1C(=O)c1ccc2ncccc2c1 [Example 501, [(7S)-2,7-Dimethyl-3-[3-(trifluoromethoxy)phenyl]-5,7-dihydro-4H-pyrazolo[3,4-c]pyridin-6-yl]-(6-quinolyl)methanone]",58.6

# Further lines, results first:
row,IC50 [nM],Compound
1,220,"Cc1ccccc1-c1c2c(nn1C)[C@H](C)N(C(=O)c1ccc3ncccc3c1)CC2 [Example 492, [(7S)-2,7-Dimethyl-3-(o-tolyl)-5,7-dihydro-4H-pyrazolo[3,4-c]pyridin-6-yl]-(6-quinolyl)methanone]"
2,47.1,"COc1cccc(-c2c3c(nn2C)[C@H](C)N(C(=O)c2ccc4ncccc4c2)CC3)c1 [Example 495, [(7S)-3-(3-Methoxyphenyl)-2,7-dimethyl-5,7-dihydro-4H-pyrazolo[3,4-c]pyridin-6-yl]-(6-quinolyl)methanone]"
3,54.4,"COc1ccccc1-c1c2c(nn1C)[C@H](C)N(C(=O)c1ccc3ncccc3c1)CC2 [Example 496, [(7S)-3-(2-Methoxyphenyl)-2,7-dimethyl-5,7-dihydro-4H-pyrazolo[3,4-c]pyridin-6-yl]-(6-quinolyl)methanone]"
4,106,"C[C@H]1c2nn(C)c(-c3ccc(F)cc3F)c2CCN1C(=O)c1ccc2ncccc2c1 [Example 502, [(7S)-3-(2,4-Difluorophenyl)-2,7-dimethyl-5,7-dihydro-4H-pyrazolo[3,4-c]pyridin-6-yl]-(6-quinolyl)methanone]"
5,22,"C[C@H]1c2nn(C)c(-c3cccc(F)c3F)c2CCN1C(=O)c1ccc2ncccc2c1 [Example 503, [(7S)-3-(2,3-Difluorophenyl)-2,7-dimethyl-5,7-dihydro-4H-pyrazolo[3,4-c]pyridin-6-yl]-(6-quinolyl)methanone]"
6,25.3,"C[C@H]1c2nn(C)c(-c3ccc(Cl)c(F)c3)c2CCN1C(=O)c1ccc2ncccc2c1 [Example 504, [(7S)-3-(4-Chloro-3-fluoro-phenyl)-2,7-dimethyl-5,7-dihydro-4H-pyrazolo[3,4-c]pyridin-6-yl]-(6-quinolyl)methanone]"
7,7.38,"C[C@H]1c2nn(C)c(-c3ccc(F)c(Cl)c3)c2CCN1C(=O)c1ccc2ncccc2c1 [Example 505, [(7S)-3-(3-Chloro-4-fluoro-phenyl)-2,7-dimethyl-5,7-dihydro-4H-pyrazolo[3,4-c]pyridin-6-yl]-(6-quinolyl)methanone]"
8,347,"C[C@H]1c2nn(C)c(-c3ccc(F)cc3Cl)c2CCN1C(=O)c1ccc2ncccc2c1 [Example 506, [(7S)-3-(2-Chloro-4-fluoro-phenyl)-2,7-dimethyl-5,7-dihydro-4H-pyrazolo[3,4-c]pyridin-6-yl]-(6-quinolyl)methanone]"
9,15.2,"C[C@H]1c2nn(C)c(-c3ccc(Cl)c(Cl)c3)c2CCN1C(=O)c1ccc2ncccc2c1 [Example 507, [(7S)-3-(3,4-Dichlorophenyl)-2,7-dimethyl-5,7-dihydro-4H-pyrazolo[3,4-c]pyridin-6-yl]-(6-quinolyl)methanone]"
10,70,"COc1ccc(F)cc1-c1c2c(nn1C)[C@H](C)N(C(=O)c1ccc3ncccc3c1)CC2 [Example 508, [(7S)-3-(5-Fluoro-2-methoxy-phenyl)-2,7-dimethyl-5,7-dihydro-4H-pyrazolo[3,4-c]pyridin-6-yl]-(6-quinolyl)methanone]"
11,6.58,"Cc1cc(F)cc(-c2c3c(nn2C)[C@H](C)N(C(=O)c2ccc4ncccc4c2)CC3)c1 [Example 511, [(7S)-3-(3-Fluoro-5-methyl-phenyl)-2,7-dimethyl-5,7-dihydro-4H-pyrazolo[3,4-c]pyridin-6-yl]-(6-quinolyl)methanone]"
12,185,"COc1ccc(-c2c3c(nn2C)[C@H](C)N(C(=O)c2ccc4ncccc4c2)CC3)cc1C [Example 512, [(7S)-3-(4-Methoxy-3-methyl-phenyl)-2,7-dimethyl-5,7-dihydro-4H-pyrazolo[3,4-c]pyridin-6-yl]-(6-quinolyl)methanone]"
13,10.5,"COc1cc(Cl)cc(-c2c3c(nn2C)[C@H](C)N(C(=O)c2ccc4ncccc4c2)CC3)c1 [Example 513, [(7S)-3-(3-Chloro-5-methoxy-phenyl)-2,7-dimethyl-5,7-dihydro-4H-pyrazolo[3,4-c]pyridin-6-yl]-(6-quinolyl)methanone]"
14,52.2,"C[C@H]1c2nn(C)c(-c3ccc(F)c(F)c3F)c2CCN1C(=O)c1ccc2ncccc2c1 [Example 515, [(7S)-2,7-Dimethyl-3-(2,3,4-trifluorophenyl)-5,7-dihydro-4H-pyrazolo[3,4-c]pyridin-6-yl]-(6-quinolyl)methanone]"
